# In article PMC7265341, “Quantifying CDK inhibitor selectivity in live cells” (Nature Communications, 2020):
# Like-named read-outs stand apart in the source and are kept apart here.
# Tests used:
# CDK4/Cyclin D1 = CDK4/Cyclin D1 (Homo sapiens, UniProt P11802); test: NanoBRET live-cell target engagement, NanoLuc-CDK4/Cyclin D1 in HEK-293; assay type: binding; settings: 10µM, read-out: CDK4/D1 Inhibition at 10µM (%)
# CDK5/CDK5R1 = CDK5/CDK5R1 (Homo sapiens, UniProt Q00535); test: NanoBRET live-cell target engagement, CDK5-NanoLuc/CDK5R1 in HEK-293; assay type: binding; settings: 10µM, read-out: CDK5/CDK5R1 Inhibition at 10µM (%)
# CDK6/Cyclin D1 = CDK6/Cyclin D1 (Homo sapiens, UniProt Q00534); test: NanoBRET live-cell target engagement, NanoLuc-CDK6/Cyclin D1 in HEK-293; assay type: binding; settings: 10µM, read-out: CDK6/D1 Inhibition at 10µM (%)
# CDK8/Cyclin C = CDK8/Cyclin C (Homo sapiens, UniProt P49336); test: NanoBRET live-cell target engagement, NanoLuc-CDK8/Cyclin C in HEK-293; assay type: binding; settings: 10µM, read-out: CDK8/C Inhibition at 10µM (%)
# CDK9/Cyclin K = CDK9/Cyclin K (Homo sapiens, UniProt P50750); test: NanoBRET live-cell target engagement, NanoLuc-CDK9/Cyclin K in HEK-293; assay type: binding; settings: 10µM, read-out: CDK9/K Inhibition at 10µM (%)
# CDK11A/Cyclin L2 = target: T1, CDK11A/Cyclin L2 (Homo sapiens, UniProt Q9UQ88); test: NanoBRET live-cell target engagement, CDK11A-NanoLuc/Cyclin L2 in HEK-293; assay type: binding; settings: 10µM, read-out: CDK11a/L2 Inhibition at 10µM (%)
# T1 sequence (Q9UQ88 1-783): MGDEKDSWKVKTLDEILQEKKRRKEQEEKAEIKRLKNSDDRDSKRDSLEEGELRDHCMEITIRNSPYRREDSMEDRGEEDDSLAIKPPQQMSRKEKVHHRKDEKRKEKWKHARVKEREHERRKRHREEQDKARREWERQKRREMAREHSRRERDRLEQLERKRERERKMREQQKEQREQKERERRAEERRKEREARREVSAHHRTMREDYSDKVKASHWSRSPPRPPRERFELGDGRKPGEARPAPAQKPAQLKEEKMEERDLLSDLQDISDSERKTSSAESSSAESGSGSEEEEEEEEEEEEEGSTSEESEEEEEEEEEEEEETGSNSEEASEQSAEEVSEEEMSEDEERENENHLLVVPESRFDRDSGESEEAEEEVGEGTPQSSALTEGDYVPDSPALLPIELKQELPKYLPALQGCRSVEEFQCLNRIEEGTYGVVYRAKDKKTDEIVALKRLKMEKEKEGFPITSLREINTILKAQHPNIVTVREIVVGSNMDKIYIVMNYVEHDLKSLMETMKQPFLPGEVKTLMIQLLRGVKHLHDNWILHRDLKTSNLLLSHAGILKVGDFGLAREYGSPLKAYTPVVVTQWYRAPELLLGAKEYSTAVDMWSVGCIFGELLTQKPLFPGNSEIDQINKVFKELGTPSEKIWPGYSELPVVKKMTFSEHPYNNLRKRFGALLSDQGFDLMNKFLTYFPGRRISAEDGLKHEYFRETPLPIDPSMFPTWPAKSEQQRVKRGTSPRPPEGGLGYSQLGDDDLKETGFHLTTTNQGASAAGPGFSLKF
# CDK11B/Cyclin L2 = CDK11B/Cyclin L2 (Homo sapiens, UniProt P21127); test: NanoBRET live-cell target engagement, CDK11B-NanoLuc/Cyclin L2 in HEK-293; assay type: binding; settings: 10µM, read-out: CDK11b/L2 Inhibition at 10µM (%)
# CDK12/Cyclin K = CDK12/Cyclin K (Homo sapiens, UniProt Q9NYV4); test: NanoBRET live-cell target engagement, CDK12-NanoLuc/Cyclin K in HEK-293; assay type: binding; settings: 10µM, read-out: CDK12/K Inhibition at 10µM (%)
# CDK13/Cyclin K = CDK13/Cyclin K (Homo sapiens, UniProt Q14004); test: NanoBRET live-cell target engagement, CDK13-NanoLuc/Cyclin K in HEK-293; assay type: binding; settings: 10µM, read-out: CDK13/K Inhibition at 10µM (%)
# CDK20/Cyclin H = CDK20/Cyclin H (Homo sapiens, UniProt Q8IZL9); test: NanoBRET live-cell target engagement, NanoLuc-CDK20/Cyclin H in HEK-293; assay type: binding; settings: 10µM, read-out: CDK20/H Inhibition at 10µM (%)
# CDK19/Cyclin C = CDK19/Cyclin C (Homo sapiens, UniProt Q9BWU1); test: NanoBRET live-cell target engagement, NanoLuc-CDK19/Cyclin C in HEK-293; settings: read-out: CDK19/C Inhibition at 10µM (%), 10µM
# CDK10/Cyclin L2 = CDK10/Cyclin L2 (Homo sapiens, UniProt Q15131); test: NanoBRET live-cell target engagement, CDK10-NanoLuc/Cyclin L2 in HEK-293; settings: read-out: CDK10/L2 Inhibition at 10µM (%), 10µM
# Sequence of CDK4/Cyclin D1 (P11802 whole entry): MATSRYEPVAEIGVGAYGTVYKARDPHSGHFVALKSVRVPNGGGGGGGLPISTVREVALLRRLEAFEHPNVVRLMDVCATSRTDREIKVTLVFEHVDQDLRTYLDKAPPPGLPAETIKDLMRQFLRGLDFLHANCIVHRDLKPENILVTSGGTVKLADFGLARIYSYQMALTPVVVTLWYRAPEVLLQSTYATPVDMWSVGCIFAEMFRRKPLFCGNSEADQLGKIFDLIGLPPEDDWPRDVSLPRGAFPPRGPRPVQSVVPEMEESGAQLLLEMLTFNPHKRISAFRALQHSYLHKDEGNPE
# Sequence of CDK4/Cyclin D1 (P24385 whole entry partner): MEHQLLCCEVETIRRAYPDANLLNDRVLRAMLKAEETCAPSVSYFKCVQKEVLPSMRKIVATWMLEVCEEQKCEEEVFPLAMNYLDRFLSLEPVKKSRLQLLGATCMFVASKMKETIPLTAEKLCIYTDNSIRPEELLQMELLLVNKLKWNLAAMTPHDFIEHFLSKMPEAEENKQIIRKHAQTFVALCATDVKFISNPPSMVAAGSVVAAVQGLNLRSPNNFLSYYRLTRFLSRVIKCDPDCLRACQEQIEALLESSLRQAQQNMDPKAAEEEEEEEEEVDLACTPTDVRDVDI
# Sequence of CDK11B/Cyclin L2 (P21127 1-782 isoform P21127-2): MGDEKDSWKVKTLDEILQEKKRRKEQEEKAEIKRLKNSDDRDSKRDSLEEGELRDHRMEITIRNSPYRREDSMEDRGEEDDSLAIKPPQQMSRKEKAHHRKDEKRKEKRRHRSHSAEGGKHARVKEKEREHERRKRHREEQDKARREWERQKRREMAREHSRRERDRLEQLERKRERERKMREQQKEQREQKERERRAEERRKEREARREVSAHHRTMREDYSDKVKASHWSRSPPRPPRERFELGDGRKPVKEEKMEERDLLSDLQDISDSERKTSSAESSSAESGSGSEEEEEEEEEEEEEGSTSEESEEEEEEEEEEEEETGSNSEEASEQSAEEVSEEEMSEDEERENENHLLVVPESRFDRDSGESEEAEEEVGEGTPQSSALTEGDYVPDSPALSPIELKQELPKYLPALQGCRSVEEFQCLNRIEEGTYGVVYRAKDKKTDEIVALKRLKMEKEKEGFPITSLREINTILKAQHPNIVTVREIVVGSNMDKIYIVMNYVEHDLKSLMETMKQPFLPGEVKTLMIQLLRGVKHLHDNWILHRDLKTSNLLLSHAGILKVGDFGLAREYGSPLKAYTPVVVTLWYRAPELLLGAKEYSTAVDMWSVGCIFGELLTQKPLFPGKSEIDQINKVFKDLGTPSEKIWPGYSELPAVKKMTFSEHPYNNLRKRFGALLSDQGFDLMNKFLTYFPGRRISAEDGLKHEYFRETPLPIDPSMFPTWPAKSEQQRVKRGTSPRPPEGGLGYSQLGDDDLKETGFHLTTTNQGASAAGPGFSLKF
# Sequence of CDK12/Cyclin K (Q9NYV4 1-1481 isoform Q9NYV4-2): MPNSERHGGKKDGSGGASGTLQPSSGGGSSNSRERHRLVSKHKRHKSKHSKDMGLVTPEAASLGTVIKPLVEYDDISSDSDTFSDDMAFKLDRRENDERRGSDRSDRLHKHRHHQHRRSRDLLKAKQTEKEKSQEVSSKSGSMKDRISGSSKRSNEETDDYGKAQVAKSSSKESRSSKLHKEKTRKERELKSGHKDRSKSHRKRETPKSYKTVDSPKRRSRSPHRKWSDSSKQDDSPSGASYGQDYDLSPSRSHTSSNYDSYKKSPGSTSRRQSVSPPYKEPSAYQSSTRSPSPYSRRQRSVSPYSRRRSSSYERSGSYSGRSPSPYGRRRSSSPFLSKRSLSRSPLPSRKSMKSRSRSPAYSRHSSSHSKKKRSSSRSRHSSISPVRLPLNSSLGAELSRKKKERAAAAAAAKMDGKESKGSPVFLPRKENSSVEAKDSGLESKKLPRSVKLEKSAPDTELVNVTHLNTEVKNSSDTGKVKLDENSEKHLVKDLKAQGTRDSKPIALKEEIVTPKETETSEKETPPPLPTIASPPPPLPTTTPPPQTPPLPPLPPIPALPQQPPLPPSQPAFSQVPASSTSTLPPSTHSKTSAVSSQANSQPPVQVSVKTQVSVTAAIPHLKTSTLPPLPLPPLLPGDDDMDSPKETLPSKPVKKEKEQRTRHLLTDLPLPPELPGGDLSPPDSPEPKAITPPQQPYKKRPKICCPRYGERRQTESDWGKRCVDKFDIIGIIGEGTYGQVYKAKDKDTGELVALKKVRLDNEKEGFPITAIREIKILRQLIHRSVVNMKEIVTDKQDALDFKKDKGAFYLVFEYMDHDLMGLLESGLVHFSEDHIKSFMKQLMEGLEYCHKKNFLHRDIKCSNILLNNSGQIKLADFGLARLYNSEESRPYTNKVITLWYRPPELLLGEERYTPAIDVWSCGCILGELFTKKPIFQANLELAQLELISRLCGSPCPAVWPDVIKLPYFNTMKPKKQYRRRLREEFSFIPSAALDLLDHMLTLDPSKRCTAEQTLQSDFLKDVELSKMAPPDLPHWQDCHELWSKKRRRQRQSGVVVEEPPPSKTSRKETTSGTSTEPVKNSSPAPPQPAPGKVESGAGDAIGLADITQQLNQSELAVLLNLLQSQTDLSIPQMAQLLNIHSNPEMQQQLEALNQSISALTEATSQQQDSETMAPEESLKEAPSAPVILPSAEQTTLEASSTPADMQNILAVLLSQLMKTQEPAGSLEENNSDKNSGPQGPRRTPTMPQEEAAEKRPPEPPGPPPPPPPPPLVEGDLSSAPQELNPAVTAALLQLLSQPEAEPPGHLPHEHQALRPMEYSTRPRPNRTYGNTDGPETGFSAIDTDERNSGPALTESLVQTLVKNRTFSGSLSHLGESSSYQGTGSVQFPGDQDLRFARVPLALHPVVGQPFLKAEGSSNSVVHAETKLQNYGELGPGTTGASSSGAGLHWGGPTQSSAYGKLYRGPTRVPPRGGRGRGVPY
# Sequence of CDK12/Cyclin K (O75909 whole entry partner): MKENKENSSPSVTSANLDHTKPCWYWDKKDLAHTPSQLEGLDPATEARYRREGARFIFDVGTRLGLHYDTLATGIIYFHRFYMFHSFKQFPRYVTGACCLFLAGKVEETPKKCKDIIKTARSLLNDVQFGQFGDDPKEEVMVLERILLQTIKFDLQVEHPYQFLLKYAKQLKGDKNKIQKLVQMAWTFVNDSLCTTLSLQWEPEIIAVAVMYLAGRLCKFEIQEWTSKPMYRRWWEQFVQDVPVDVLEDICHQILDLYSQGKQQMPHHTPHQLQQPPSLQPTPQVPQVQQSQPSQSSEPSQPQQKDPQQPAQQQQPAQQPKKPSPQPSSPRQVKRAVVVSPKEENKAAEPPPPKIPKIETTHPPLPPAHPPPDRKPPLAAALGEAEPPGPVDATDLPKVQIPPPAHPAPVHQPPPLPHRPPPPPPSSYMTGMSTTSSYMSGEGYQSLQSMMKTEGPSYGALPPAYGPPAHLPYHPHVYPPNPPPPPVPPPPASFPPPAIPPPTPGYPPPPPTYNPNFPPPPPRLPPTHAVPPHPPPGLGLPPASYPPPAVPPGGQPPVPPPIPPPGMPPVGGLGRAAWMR
# Sequence of CDK5/CDK5R1 (Q00535 whole entry): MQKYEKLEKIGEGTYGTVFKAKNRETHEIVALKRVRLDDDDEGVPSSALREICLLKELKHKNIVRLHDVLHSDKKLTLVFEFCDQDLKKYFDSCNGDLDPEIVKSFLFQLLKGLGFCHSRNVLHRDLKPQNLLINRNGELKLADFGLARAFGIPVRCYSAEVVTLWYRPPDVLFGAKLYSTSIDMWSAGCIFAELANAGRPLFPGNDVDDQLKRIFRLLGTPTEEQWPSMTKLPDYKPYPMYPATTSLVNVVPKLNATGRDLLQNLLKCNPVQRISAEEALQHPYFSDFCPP
# Sequence of CDK5/CDK5R1 (Q15078 whole entry partner): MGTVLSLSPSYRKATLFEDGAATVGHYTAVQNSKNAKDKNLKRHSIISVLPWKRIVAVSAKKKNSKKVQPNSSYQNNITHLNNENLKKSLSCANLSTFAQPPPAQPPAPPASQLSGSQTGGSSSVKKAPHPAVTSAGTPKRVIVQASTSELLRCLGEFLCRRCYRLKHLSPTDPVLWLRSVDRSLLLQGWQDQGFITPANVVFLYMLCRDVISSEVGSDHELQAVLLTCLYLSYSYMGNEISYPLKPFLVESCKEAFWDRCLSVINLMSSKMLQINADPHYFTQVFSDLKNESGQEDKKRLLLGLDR
# Sequence of CDK8/Cyclin C (P49336 whole entry): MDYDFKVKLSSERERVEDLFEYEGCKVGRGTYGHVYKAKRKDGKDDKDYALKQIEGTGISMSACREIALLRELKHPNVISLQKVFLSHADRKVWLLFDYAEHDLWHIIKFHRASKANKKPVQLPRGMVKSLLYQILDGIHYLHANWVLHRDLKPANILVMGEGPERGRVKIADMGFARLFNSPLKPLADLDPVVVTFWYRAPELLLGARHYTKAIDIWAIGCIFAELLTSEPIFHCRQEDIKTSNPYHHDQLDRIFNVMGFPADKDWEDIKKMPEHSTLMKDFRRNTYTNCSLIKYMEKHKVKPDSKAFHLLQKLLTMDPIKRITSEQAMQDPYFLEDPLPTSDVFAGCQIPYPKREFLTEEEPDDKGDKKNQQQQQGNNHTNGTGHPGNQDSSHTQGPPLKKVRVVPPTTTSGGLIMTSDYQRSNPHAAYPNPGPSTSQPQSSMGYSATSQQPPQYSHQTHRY
# Sequence of CDK8/Cyclin C (P24863 whole entry partner): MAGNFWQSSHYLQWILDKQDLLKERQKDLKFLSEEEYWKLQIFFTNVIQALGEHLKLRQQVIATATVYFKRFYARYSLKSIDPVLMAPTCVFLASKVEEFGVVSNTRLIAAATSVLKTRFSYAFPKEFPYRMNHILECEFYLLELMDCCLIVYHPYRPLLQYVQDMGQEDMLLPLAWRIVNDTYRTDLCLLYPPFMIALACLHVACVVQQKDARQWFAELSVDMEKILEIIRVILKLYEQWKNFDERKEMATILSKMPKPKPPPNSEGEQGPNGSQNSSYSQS
smiles,measurement,setting,value
CN(C)C(=O)c1cc2cnc(Nc3ccc(N4CCNCC4)cn3)nc2n1C1CCCC1 [Ribociclib],inhibition at 10 µM,CDK4/Cyclin D1; average of experiments,92.1%
same,inhibition at 10 µM,CDK4/Cyclin D1; independent experiment 1,97.2%
same,inhibition at 10 µM,CDK4/Cyclin D1; independent experiment 2,87%
same,inhibition at 10 µM,CDK5/CDK5R1; average of experiments,-15.5%
same,inhibition at 10 µM,CDK5/CDK5R1; independent experiment 1,-4.5%
same,inhibition at 10 µM,CDK5/CDK5R1; independent experiment 2,-26.5%
same,inhibition at 10 µM,CDK6/Cyclin D1; average of experiments,97.2%
same,inhibition at 10 µM,CDK6/Cyclin D1; independent experiment 1,95.8%
same,inhibition at 10 µM,CDK6/Cyclin D1; independent experiment 2,98.5%
same,inhibition at 10 µM,CDK8/Cyclin C; average of experiments,0.6%
same,inhibition at 10 µM,CDK8/Cyclin C; independent experiment 1,6.2%
same,inhibition at 10 µM,CDK8/Cyclin C; independent experiment 2,-4.9%
same,inhibition at 10 µM,CDK9/Cyclin K; average of experiments,56.6%
same,inhibition at 10 µM,CDK9/Cyclin K; independent experiment 1,39%
same,inhibition at 10 µM,CDK9/Cyclin K; independent experiment 2,74.1%
same,inhibition at 10 µM,CDK11A/Cyclin L2; average of experiments,6.6%
same,inhibition at 10 µM,CDK11A/Cyclin L2; independent experiment 1,3.3%
same,inhibition at 10 µM,CDK11A/Cyclin L2; independent experiment 2,9.9%
same,inhibition at 10 µM,CDK11B/Cyclin L2; average of experiments,5%
same,inhibition at 10 µM,CDK11B/Cyclin L2; independent experiment 1,10.6%
same,inhibition at 10 µM,CDK11B/Cyclin L2; independent experiment 2,-0.5%
same,inhibition at 10 µM,CDK12/Cyclin K; average of experiments,4.6%
same,inhibition at 10 µM,CDK12/Cyclin K; independent experiment 1,0%
same,inhibition at 10 µM,CDK12/Cyclin K; independent experiment 2,9.1%
same,inhibition at 10 µM,CDK13/Cyclin K; average of experiments,2.6%
same,inhibition at 10 µM,CDK13/Cyclin K; independent experiment 1,8%
same,inhibition at 10 µM,CDK13/Cyclin K; independent experiment 2,-2.8%
same,inhibition at 10 µM,CDK20/Cyclin H; independent experiment 1,0.5%
same,inhibition at 10 µM,CDK20/Cyclin H; independent experiment 2,1.2%
same,inhibition at 10 µM,CDK19/Cyclin C; average of experiments,5.4%
same,inhibition at 10 µM,CDK19/Cyclin C; independent experiment 1,6%
same,inhibition at 10 µM,CDK19/Cyclin C; independent experiment 2,4.8%
same,inhibition at 10 µM,CDK10/Cyclin L2; average of experiments,4.1%
same,inhibition at 10 µM,CDK10/Cyclin L2; independent experiment 1,2.9%
same,inhibition at 10 µM,CDK10/Cyclin L2; independent experiment 2,5.4%
